The values that follow come from US11638424B2, “Mosquito attractant formulations and uses thereof” (priority 2017, dated 2023).

Structures are written as SMILES.

One data set relates to A. gambiae sensu lato. Description: Mosquito fitness after blood feeding (blood meal size, fecundity, survival). Particulars: hRBCs vs RBCs. In kind it is in vivo. As to the method: Mosquitoes used in this study were from the laboratory colony of A. gambiae sensu lato (Keele line, University of Glasgow), which was produced by balanced interbreeding of four A. gambiae s.s. strains (H. Hurd, et al. Evolution, 59, 2560-2572 (2005)). Larvae were reared under standard insectary conditions (27±1° C., 70% humidity, 12 h light: 12 h dark cycle) and fed on TetraMin fish flakes (Tetra ltd., Germany). Pupae were transferred into holding cages for emergence. Emerged adults were fed ad libitum on 5% glucose solution, supplemented with 0.05% (w/v) 4-aminobenzoic acid (PABA, Sigma-Aldrich), through soaked filters on top of the 2 ml tubes and with soaked filter pads inside cages. Red blood cells (RBCs) were washed with Roswell Park Memorial Institute (RPMI) medium and stored in RPMI at 50% haematocrit at 4° C. until use. To measure the effect of HMBPP on mosquito fitness, RBCs stored in RPMI were centrifuged at 2500×g for 5 min followed by replacement of the medium with AB serum for a final haematocrit of 40%. HMBPP (stock concentration at 4 mM in Nanopure water, stored at −80° C.) was diluted to 10 μM in 1 ml RBC suspension, and the corresponding volume of Nanopure water was added to the control RBCs. All experiments were, unless otherwise stated, conducted on 5-7 days post-emergence female mosquitoes maintained in separated cages (approximately 210 individuals per cohort) and fed RBCs either with or without HMBPP for 30 min. All experiments were performed in triplicates.
GLMM statistical modelling was used to corroborate the validity of results based on the whole data set by including the effect of replications (experimental blocks), including weighting for multiple replications. In all analyses, the effect of the main experimental effects (e.g. treatment) was investigated while controlling for variation in experimental replication (random variable). For all results, the significance of all explanatory effects were evaluated by using likelihood ratio test (LRT). Analyses were performed using R statistical software. […]

The next data set relates to A. gambiae s.l. Particulars: in vivo; cited from earlier work.

With `C/C(=C\COP(=O)(O)OP(=O)(O)O)CO` [HMBPP, (E)-4-hydroxy-3-methyl-but-2-enyl pyrophosphate], the mosquito fecundity result with A. gambiae sensu lato (FIG. 3A) is “Neither mosquito fecundity, nor survival was affected”. For the same compound, the mosquito survival result in the data set on A. gambiae sensu lato (FIG. 3B) is on record as “Neither mosquito fecundity, nor survival was affected”. Further, the “size of mosquito blood meals” value in the data set on A. gambiae sensu lato (FIG. 3C) is reported as “significantly increased”. For the same compound, the “innate immune responses in A. gambiae s.l.” value in the data set on A. gambiae s.l. was “trigger innate immune responses”.
